Measured values from patent publication US6761898B1, “Combination composition in the form of nutritional supplement or pharmaceutical composition for the prevention and therapeutical treatment of degenerative or inflammatory articular disorders” (Sigma-Tau Industrie Farmaceutiche Riunite S.p.A., priority 1998, dated 2004).

Experiments:
[1] = system: Type II collagen arthritis in mice; experiment: Type II collagen arthritis tests; format: in vivo; conditions: injected from day one after collagen injection to end of sixth week, L-carnitine 50 and 100 mg/kg, glucosamine 100 and 200 mg/kg, chondroitin sulphate 50 and 100 mg/kg
Method: Type II collagen arthritis was induced in mice according to the technique described by Trentham (Trentham D. R., Townes A. S., Kang A. H., J. Exp. Med., 146, 857, 1977). One group of mice was immunised by means of intradermal injections of natural collagen emulsified in complete Freund's adjuvant (Difco Labs., Detroit, U.S.A.) at the base of the tail. Three weeks later these animals were re-injected intraperitoneally with the same dose of emulsified collagen. L-carnitine (50 mg/kg and 100 mg/kg), glucosamine (100 mg/kg and 200 mg/kg) and chondroitin sulphate (50 mg/kg and 100 mg/kg) were injected alone or in combination from day one after the collagen injection up to the end of the sixth week. One group of animals (control) received no treatment. The assessment of the severity of the oedema was done according to its intensity with scores ranging from 1 to 4. […] When L-carnitine was combined with either glucosamine or with chondroitin sulphate an approximately 50% reduction of arthrosis was obtained.

[2] = system: carragenin-induced oedema in the rat; experiment: Carragenin oedema tests; format: in vivo; conditions: for effect on severity of the carragenin-induced oedema: substance alone, 50, 100 and 200 mg/kg one hour prior to carragenin
Method: Carragenin oedema was induced in the rat by injection of 0.1 ml of a 1% carragenin solution (Sigma Chemical) in the subplantar region of the rat's right paw. The volume of the paw was measured by means of a mercury plethysmograph one hour later and over the 5-hour period following carragenin injection.
L-carnitine, glucosamine and chondroitin sulphate were administered one hour prior to carragenin injection, both alone and in combination at doses of 50, 100 and 200 mg/kg of these compounds.

[3] = dose 100 mg/kg (each substance), 2 hours
[4] = dose 100 mg/kg (each substance), 3 hours
[5] = dose 100 mg/kg (each substance), 4 hours
[6] = dose 200 mg/kg (each substance), 1 hour
[7] = dose 200 mg/kg (each substance), 2 hours
[8] = dose 200 mg/kg (each substance), 3 hours
[9] = dose 200 mg/kg (each substance), 4 hours

N[C@H]1C(O)O[C@H](CO)[C@@H](O)[C@@H]1O (some centres unmarked) [Glucosamine, glucosamine]
inhibitory effect on the development of the typical signs of arthritis [1]: neither L-carnitine, glucosamine nor chondroitin sulphate when administered alone had any inhibitory effect | % Reduction of oedema at various hours after carragenin injection [2, 3]: 5 ± 0.3% | % Reduction of oedema at various hours after carragenin injection [2, 4]: 5 ± 0.5% | % Reduction of oedema at various hours after carragenin injection [2, 5]: 5 ± 0.6% | % Reduction of oedema at various hours after carragenin injection [2, 6]: 5 ± 0.2% | % Reduction of oedema at various hours after carragenin injection [2, 7]: 10 ± 0.9% | % Reduction of oedema at various hours after carragenin injection [2, 8]: 10 ± 1.1% | % Reduction of oedema at various hours after carragenin injection [2, 9]: 5 ± 0.5% | effect on severity of the carragenin-induced oedema [2]: failed to modify the severity

C[N+](C)(C)C[C@H](O)CC(=O)[O-] [L-carnitine]
inhibitory effect on the development of the typical signs of arthritis [1]: neither L-carnitine, glucosamine nor chondroitin sulphate when administered alone had any inhibitory effect | % Reduction of oedema at various hours after carragenin injection [2, 7]: 10 ± 0.2% | % Reduction of oedema at various hours after carragenin injection [2, 8]: 5 ± 0.3% | effect on severity of the carragenin-induced oedema [2]: failed to modify the severity

chondroitin sulphate
inhibitory effect on the development of the typical signs of arthritis [1]: neither L-carnitine, glucosamine nor chondroitin sulphate when administered alone had any inhibitory effect | % Reduction of oedema at various hours after carragenin injection ([2]; dose 100 mg/kg (each substance), 1 hour): 10 ± 0.3% | % Reduction of oedema at various hours after carragenin injection [2, 3]: 10 ± 0.8% | % Reduction of oedema at various hours after carragenin injection [2, 4]: 5 ± 0.4% | % Reduction of oedema at various hours after carragenin injection [2, 5]: 5 ± 0.1% | % Reduction of oedema at various hours after carragenin injection [2, 6]: 10 ± 1.9% | % Reduction of oedema at various hours after carragenin injection [2, 7]: 15 ± 1.1% | % Reduction of oedema at various hours after carragenin injection [2, 8]: 20 ± 1.8% | % Reduction of oedema at various hours after carragenin injection [2, 9]: 10 ± 1.2% | effect on severity of the carragenin-induced oedema [2]: failed to modify the severity
